From US6607522B1, “Methods for tissue welding using laser-activated protein solders” (General Hospital Corporation, priority 2000, dated 2003)

Columns and labels:
[1] = in vitro; cited from earlier work
[2] = tested on: 5 mm incision on equatorial sclera of human cadaveric eyes; assay: Leaking pressure of laser-welded scleral incisions in cadaveric eyes
Excerpt: Welding Procedure: To measure leaking pressures, an 18-gauge butterfly needle was connected by plastic tubing to a water bottle. The inner pressure in the bottle was controlled by a hand-pumped sphygmomanometer. Nonpreserved cadaveric eyes were defrosted in room-temperature water. The butterfly needle was inserted in the vitreous cavity through equatorial sclera, and the eye was pressurized to 25 to 30 mm Hg. The corneal epithelium was then removed at the wound site, and a caliper set on 5 mm used to make the extent of the incision on equatorial sclera, perpendicular to the limbus. All incisions were placed equidistant from the limbus, and areas of blue or thin sclera were avoided. […] The exact power output of the fiber was measured using a power meter (model 210; Coherent, Palo Alto, Calif.). Argon laser goggles (Glendale Protective Technologies, Lakeland, Fla.) were worn, which allowed viewing of the fluorescence from the Ce6 (emission 670 nm). To set the remaining adhesive on the scleral surface, which surrounded the wound, additional laser was applied until loss of fluorescence of the dye, which took another 30 to 45 seconds.
Leaking Pressure: Leaking pressures were then measured using the sphygmomanometer, which was increasingly pressurized in approximately 10-mm Hg increments. Leaking pressure was recorded the moment the wound leaked air or fluid. […]

Compound | triplet yield [1] | Mean Leaking Pressure ([2]; argon blue-green laser 488-514 nm, total energy 24-57 J, 60-120 s, mean ± spread) | Mean Leaking Pressure/Total Energy Ratio ([2]; leaking pressure in mm Hg, total energy in joules)
CC1(C)C(/C=C/C=C/C=C/C=C2\N(CCCCS(=O)(=O)O)c3ccc4ccccc4c3C2(C)C)=[N+](CCCCS(=O)(=O)[O-])c2ccc3ccccc3c21 [indocyanine green] | 0.11 | – | –
BSA − Ce6 conjugate: Covalent bovine serum albumin-chlorin e6 conjugate solder; protein 5.2 mM, Ce6 6.2 mM, ratio 0.84 | – | 78.0 ± 11.9 millimeters of mercury | 1.75 ± 0.26
